Data as given in ChEMBL document CHEMBL2434921, “New synthetic aliphatic sulfonamido-quaternary ammonium salts as anticancer chemotherapeutic agents” (2013).
The source made the active and inactive calls. The rule behind the calls is not given here.

Assays:
NCI-H23 [1] = test: Growth inhibition of human NCI-H23 cells after 48 hrs by SRB assay; type: functional; details: NCI-H23, 48 h
HCT-15 [2] = test: Growth inhibition of human HCT15 cells after 48 hrs by SRB assay; type: functional; details: HCT-15, 48 h
NUGC-3 [3] = test: Growth inhibition of human NUGC3 cells after 48 hrs by SRB assay; type: functional; details: NUGC-3, 48 h
ACHN [4] = test: Growth inhibition of human ACHN cells after 48 hrs by SRB assay; type: functional
MDA-MB-231 [5] = test: Growth inhibition of human MDA-MB-231 cells after 48 hrs by SRB assay; type: functional; details: MDA-MB-231, 48 h
PC-3 [6] = test: Growth inhibition of human PC3 cells after 48 hrs by SRB assay; type: functional; details: PC-3, 48 h
PC-3 [7] = test: Growth of human PC3 cells at 10 uM after 48 hrs by SRB assay; details: PC-3, 48 h
NUGC-3 [8] = test: Growth of human NUGC3 cells at 1 uM after 48 hrs by SRB assay; details: NUGC-3, 48 h
ACHN [9] = test: Growth of human ACHN cells at 10 uM after 48 hrs by SRB assay
HCT-15 [10] = test: Growth of human HCT15 cells at 3 uM after 48 hrs by SRB assay; details: HCT-15, 48 h
ACHN [11] = test: Growth of human ACHN cells at 0.1 uM after 48 hrs by SRB assay
ACHN [12] = test: Growth of human ACHN cells at 0.3 uM after 48 hrs by SRB assay
NUGC-3 [13] = test: Growth of human NUGC3 cells at 0.1 uM after 48 hrs by SRB assay; details: NUGC-3, 48 h
NUGC-3 [14] = test: Growth of human NUGC3 cells at 0.3 uM after 48 hrs by SRB assay; details: NUGC-3, 48 h
HCT-15 [15] = test: Growth of human HCT15 cells at 0.3 uM after 48 hrs by SRB assay; details: HCT-15, 48 h
NCI-H23 [16] = test: Growth of human NCI-H23 cells at 10 uM after 48 hrs by SRB assay; details: NCI-H23, 48 h
NCI-H23 [17] = test: Growth of human NCI-H23 cells at 0.3 uM after 48 hrs by SRB assay; details: NCI-H23, 48 h
MDA-MB-231 [18] = test: Growth of human MDA-MB-231 cells at 1 uM after 48 hrs by SRB assay; details: MDA-MB-231, 48 h
MDA-MB-231 [19] = test: Growth of human MDA-MB-231 cells at 10 uM after 48 hrs by SRB assay; details: MDA-MB-231, 48 h
MDA-MB-231 [20] = test: Growth of human MDA-MB-231 cells at 0.1 uM after 48 hrs by SRB assay; details: MDA-MB-231, 48 h
MDA-MB-231 [21] = test: Growth of human MDA-MB-231 cells at 3 uM after 48 hrs by SRB assay; values are per cent of control; details: MDA-MB-231, 48 h
PC-3 [22] = test: Growth inhibition of human PC3 cells at 1 uM after 48 hrs by SRB assay; values are per cent of control; details: PC-3, 48 h
PC-3 [23] = test: Growth inhibition of human PC3 cells at 3 uM after 48 hrs by SRB assay; values are per cent of control; details: PC-3, 48 h
ACHN [24] = test: Growth inhibition of human ACHN cells at 3 uM after 48 hrs by SRB assay; values are per cent of control
ACHN [25] = test: Growth inhibition of human ACHN cells at 1 uM after 48 hrs by SRB assay; values are per cent of control
NUGC-3 [26] = test: Growth inhibition of human NUGC3 cells at 3 uM after 48 hrs by SRB assay; values are per cent of control; details: NUGC-3, 48 h
PC-3 [27] = test: Growth inhibition of human PC3 cells at 0.1 uM after 48 hrs by SRB assay; values are per cent of control; details: PC-3, 48 h
PC-3 [28] = test: Growth inhibition of human PC3 cells at 0.3 uM after 48 hrs by SRB assay; values are per cent of control; details: PC-3, 48 h
HCT-15 [29] = test: Growth inhibition of human HCT15 cells at 1 uM after 48 hrs by SRB assay; values are per cent of control; details: HCT-15, 48 h
NUGC-3 [30] = test: Growth inhibition of human NUGC3 cells at 10 uM after 48 hrs by SRB assay; values are per cent of control; details: NUGC-3, 48 h
HCT-15 [31] = test: Growth inhibition of human HCT15 cells at 10 uM after 48 hrs by SRB assay; values are per cent of control; details: HCT-15, 48 h
NCI-H23 [32] = test: Growth inhibition of human NCI-H23 cells at 1 uM after 48 hrs by SRB assay; values are per cent of control; details: NCI-H23, 48 h
NCI-H23 [33] = test: Growth inhibition of human NCI-H23 cells at 3 uM after 48 hrs by SRB assay; values are per cent of control; details: NCI-H23, 48 h
HCT-15 [34] = test: Growth inhibition of human HCT15 cells at 0.1 uM after 48 hrs by SRB assay; values are per cent of control; details: HCT-15, 48 h
NCI-H23 [35] = test: Growth inhibition of human NCI-H23 cells at 0.1 uM after 48 hrs by SRB assay; values are per cent of control; details: NCI-H23, 48 h
MDA-MB-231 [36] = test: Growth inhibition of human MDA-MB-231 cells at 0.3 uM after 48 hrs by SRB assay; values are per cent of control; details: MDA-MB-231, 48 h
[37] = molecular target: Rho-related GTP-binding protein RhoB (Homo sapiens) (UniProt P62745); test: Transactivation of RhoB (unknown origin) transfected in human HeLa cells at 5 uM measured over 10 secs by dual luciferase reporter gene assay; type: cell-based
Chain of Rho-related GTP-binding protein RhoB (Homo sapiens) (P62745 whole entry): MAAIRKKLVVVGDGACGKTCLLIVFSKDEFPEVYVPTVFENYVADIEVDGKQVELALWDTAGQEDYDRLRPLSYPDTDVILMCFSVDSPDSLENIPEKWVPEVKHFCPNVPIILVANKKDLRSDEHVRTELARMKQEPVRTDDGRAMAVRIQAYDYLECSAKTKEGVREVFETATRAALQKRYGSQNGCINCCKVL

Which results are given for `CCCCCCCCCCCCCCCCS(=O)(=O)NCC(C)(C)C[N+](C)(C)C`?
GI50 (NCI-H23 [1]): 740 nM; GI50 (HCT-15 [2]): 560 nM; GI50 (NUGC-3 [3]): 430 nM; GI50 (ACHN [4]): 2210 nM; GI50 (MDA-MB-231 [5]): 1520 nM; GI50 (PC-3 [6]): 560 nM; growth, % of control at 10 µM (PC-3 [7]): -14.6%; growth, % of control at 1 µM (NUGC-3 [8]): 33.6%; growth, % of control at 10 µM (ACHN [9]): 99.6%; growth, % of control at 3 µM (HCT-15 [10]): 17.6%; growth, % of control at 0.1 µM (ACHN [11]): 122%; growth, % of control at 0.3 µM (ACHN [12]): 114%; growth, % of control at 0.1 µM (NUGC-3 [13]): 106%; growth, % of control at 0.3 µM (NUGC-3 [14]): 87.1%; growth, % of control at 0.3 µM (HCT-15 [15]): 132%; growth, % of control at 10 µM (NCI-H23 [16]): 0.7%; growth, % of control at 0.3 µM (NCI-H23 [17]): 102%; growth, % of control at 1 µM (MDA-MB-231 [18]): 73.6%; growth, % of control at 10 µM (MDA-MB-231 [19]): 16.5%; growth, % of control at 0.1 µM (MDA-MB-231 [20]): 95.6%; growth, % of control at 3 µM (MDA-MB-231 [21]): 49.5%; growth, % of control at 1 µM (PC-3 [22]): 51.8%; growth, % of control at 3 µM (PC-3 [23]): 0.2%; growth, % of control at 3 µM (ACHN [24]): 101%; growth, % of control at 1 µM (ACHN [25]): 108%; growth, % of control at 3 µM (NUGC-3 [26]): 14.7%; growth, % of control at 0.1 µM (PC-3 [27]): 107%; growth, % of control at 0.3 µM (PC-3 [28]): 102%; growth, % of control at 1 µM (HCT-15 [29]): 46.1%; growth, % of control at 10 µM (NUGC-3 [30]): 3%; growth, % of control at 10 µM (HCT-15 [31]): 11.7%; growth, % of control at 1 µM (NCI-H23 [32]): 54.1%; growth, % of control at 3 µM (NCI-H23 [33]): 26.3%; growth, % of control at 0.1 µM (HCT-15 [34]): 136%; growth, % of control at 0.1 µM (NCI-H23 [35]): 104%; growth, % of control at 0.3 µM (MDA-MB-231 [36]): 95%

`CCCCCCCCCCCCCCCCCCOP(=O)([O-])OC1CC[N+](C)(C)CC1` [PERIFOSINE] was tested. Which GI50 (NUGC-3 [3]) did it give?
Its GI50 is 540 nM.

What about the GI50 (PC-3 [6]) of the same molecule?
The GI50 was 440 nM.

Which GI50 (NCI-H23 [1]) does the source give for `CCCCCCCCCCCCCCCCS(=O)(=O)NCC(C)(C)C[N+](C)(C)CC` here?
The GI50 was 690 nM.

What about the GI50 (HCT-15 [2]) of the same molecule?
Its GI50 is 1350 nM.

What about the GI50 (NUGC-3 [3]) of the same molecule?
Its GI50 is 570 nM.

What about the GI50 (ACHN [4]) of the same molecule?
The GI50 was 2270 nM.

And the GI50 (MDA-MB-231 [5])?
The GI50 was 2790 nM.

What about the GI50 (PC-3 [6]) of the same molecule?
The GI50 was 790 nM.

What about the growth, % of control at 10 µM (PC-3 [7]) of the same molecule?
The growth, % of control at 10 µM was -11.1%.

And the growth, % of control at 1 µM (NUGC-3 [8])?
Its growth, % of control at 1 µM is 43.8%.

And the growth, % of control at 10 µM (ACHN [9])?
Its growth, % of control at 10 µM is 104%.

What about the growth, % of control at 3 µM (HCT-15 [10]) of the same molecule?
Its growth, % of control at 3 µM is 40.2%.

And the growth, % of control at 0.1 µM (ACHN [11])?
The growth, % of control at 0.1 µM was 108%.

And the growth, % of control at 0.3 µM (ACHN [12])?
Its growth, % of control at 0.3 µM is 100%.

What about the growth, % of control at 0.1 µM (NUGC-3 [13]) of the same molecule?
The growth, % of control at 0.1 µM was 115%.

And the growth, % of control at 0.3 µM (NUGC-3 [14])?
The growth, % of control at 0.3 µM was 108%.

What about the growth, % of control at 0.3 µM (HCT-15 [15]) of the same molecule?
The growth, % of control at 0.3 µM was 138%.

What about the growth, % of control at 10 µM (NCI-H23 [16]) of the same molecule?
The growth, % of control at 10 µM was -10.9%.

What about the growth, % of control at 0.3 µM (NCI-H23 [17]) of the same molecule?
The growth, % of control at 0.3 µM was 92.1%.

What about the growth, % of control at 1 µM (MDA-MB-231 [18]) of the same molecule?
Its growth, % of control at 1 µM is 88.6%.

And the growth, % of control at 10 µM (MDA-MB-231 [19])?
The growth, % of control at 10 µM was 27.1%.

And the growth, % of control at 0.1 µM (MDA-MB-231 [20])?
Its growth, % of control at 0.1 µM is 108%.

What about the growth, % of control at 3 µM (MDA-MB-231 [21]) of the same molecule?
The growth, % of control at 3 µM was 66%.

What about the growth, % of control at 1 µM (PC-3 [22]) of the same molecule?
Its growth, % of control at 1 µM is 69.4%.

What about the growth, % of control at 3 µM (PC-3 [23]) of the same molecule?
Its growth, % of control at 3 µM is 12.9%.

And the growth, % of control at 3 µM (ACHN [24])?
The growth, % of control at 3 µM was 102%.

And the growth, % of control at 1 µM (ACHN [25])?
Its growth, % of control at 1 µM is 99.6%.

What about the growth, % of control at 3 µM (NUGC-3 [26]) of the same molecule?
Its growth, % of control at 3 µM is 18.8%.

And the growth, % of control at 0.1 µM (PC-3 [27])?
Its growth, % of control at 0.1 µM is 109%.

What about the growth, % of control at 0.3 µM (PC-3 [28]) of the same molecule?
Its growth, % of control at 0.3 µM is 99.5%.

What about the growth, % of control at 1 µM (HCT-15 [29]) of the same molecule?
Its growth, % of control at 1 µM is 63.2%.

And the growth, % of control at 10 µM (NUGC-3 [30])?
Its growth, % of control at 10 µM is 0%.

And the growth, % of control at 10 µM (HCT-15 [31])?
The growth, % of control at 10 µM was 21.3%.

What about the growth, % of control at 1 µM (NCI-H23 [32]) of the same molecule?
Its growth, % of control at 1 µM is 50.5%.

And the growth, % of control at 3 µM (NCI-H23 [33])?
Its growth, % of control at 3 µM is 30.4%.

What about the growth, % of control at 0.1 µM (HCT-15 [34]) of the same molecule?
Its growth, % of control at 0.1 µM is 141%.

And the growth, % of control at 0.1 µM (NCI-H23 [35])?
The growth, % of control at 0.1 µM was 100%.

And the growth, % of control at 0.3 µM (MDA-MB-231 [36])?
Its growth, % of control at 0.3 µM is 103%.

Which GI50 (HCT-15 [2]) does the source give for `CCCCCCCCCCCCCCCC(=O)N1CC[N+](C)(C)CC1` here?
The GI50 was 580 nM.

And the Activity [37]?
Its Activity is “Active”.

What about the GI50 (NUGC-3 [3]) of the same molecule?
The GI50 was 290 nM.

And the GI50 (PC-3 [6])?
The GI50 was 480 nM.
